Measured values from patent publication US20230116972A1, “CD38 MODULATORS AND METHODS OF USE THEREOF” (Cytokinetics, Inc., priority 2021, published 2023).

How the values were obtained:
[1] = biological target: T1, endogenous CD38 in HL60 cells (Homo sapiens, UniProt P28907); assay: cellular CD38 assay in HL60 cells (cellular NAD levels); type: cell-based; conditions: all-trans retinoic acid, 24 hours, read-out: hCD38 HL60 ATRA NAD Cell Diaphorase IC50
T1 construct: endogenous in cells; host or cells: HL60 (leukemic cells, treated with all-trans retinoic acid)
T1 sequence (P28907 1-300): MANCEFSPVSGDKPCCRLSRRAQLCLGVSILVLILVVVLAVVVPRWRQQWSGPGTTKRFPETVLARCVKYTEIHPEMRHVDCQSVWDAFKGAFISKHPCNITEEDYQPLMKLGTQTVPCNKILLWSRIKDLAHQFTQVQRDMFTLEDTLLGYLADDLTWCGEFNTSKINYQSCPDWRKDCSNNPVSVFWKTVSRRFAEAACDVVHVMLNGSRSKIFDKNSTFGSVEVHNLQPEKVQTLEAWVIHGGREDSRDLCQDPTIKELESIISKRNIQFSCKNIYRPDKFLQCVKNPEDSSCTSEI
Summary of the method: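 Endogenous CD38 inhibition is inferred from NAD levels in HL60 cells after 24 h compound exposure at 20000 cells per well. A lytic cycling readout (0.2 U/mL diaphorase, 0.8 U/mL alcohol dehydrogenase, resazurin, FMN, ethanol, 0.2% Triton X-100, Tris/EDTA pH 8.4) ran 60 min at ambient temperature. Resorufin fluorescence was read at 540/590 nm.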

human CD38 = biological target: T2, human CD38 (Homo sapiens, UniProt P28907); assay: human recombinant CD38 enzyme assay (hydrolysis of NAD+); type: biochemical; conditions: human recombinant CD38, 0.4 nM enzyme, 62.5 μM NAD+; read-out: hCD38 BioChem IC50
T2 sequence (P28907 1-300): T1 sequence (P28907 1-300)
Summary of the method: (§1)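 Residual NAD+ after 60 min of cell-free hydrolysis by recombinant mouse or human CD38 at ambient temperature, measured over a dose range. Detection used ADH conversion to NADH, then diaphorase-coupled resazurin-to-resorufin fluorescence (Ex/Em 540/590 nm).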

mouse CD38 = biological target: T3, mouse CD38 (Mus musculus, UniProt P56528); assay: mouse recombinant CD38 enzyme assay (hydrolysis of NAD+); type: biochemical; conditions: read-out: mCD38 BioChem IC50
T3 sequence (P56528 1-304): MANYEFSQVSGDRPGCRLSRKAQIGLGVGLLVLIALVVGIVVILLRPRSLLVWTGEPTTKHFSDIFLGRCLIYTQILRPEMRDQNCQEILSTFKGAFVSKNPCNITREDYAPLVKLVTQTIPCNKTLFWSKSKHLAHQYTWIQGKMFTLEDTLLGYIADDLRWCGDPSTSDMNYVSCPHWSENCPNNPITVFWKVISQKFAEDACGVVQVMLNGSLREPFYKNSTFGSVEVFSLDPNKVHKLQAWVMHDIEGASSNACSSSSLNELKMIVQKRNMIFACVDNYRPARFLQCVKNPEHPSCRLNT
Summary of the method: as §1

Row | SMILES | IC50 [1] [nM] | IC50 (human CD38) [nM] | IC50 (mouse CD38) [nM]
1 | CC(C)c1cc(C(=O)Nc2ccc(C(F)F)nc2)nc(-c2cncn2C)n1 [Compound 173, N-(6-(difluoromethyl)pyridin-3-yl)-6-isopropyl-2-(1-methyl-1H-imidazol-5-yl)pyrimidine-4-carboxamide] | 1250 | 8 | 2
2 | CC(C)(O)c1cc(C(=O)Nc2ccc(C(F)(F)F)nc2)nc(-n2ccnc2)n1 [Compound 175, 6-(2-hydroxypropan-2-yl)-2-(1H-imidazol-1-yl)-N-(6-(trifluoromethyl)pyridin-3-yl)pyrimidine-4-carboxamide] | 6460 | 330 | 335
3 | CO[C@H]1CC[C@H](NC(=O)c2nc(C)cc(-c3cncn3C)n2)CC1 [Compound 191, N-((1r,4r)-4-methoxycyclohexyl)-4-methyl-6-(1-methyl-1H-imidazol-5-yl)pyrimidine-2-carboxamide] | 3280 | 35.3 | 4.5
4 | CO[C@H]1CC[C@H](NC(=O)c2cc(C3CCOCC3)nc(-n3ccnc3)n2)CC1 [Compound 193, 2-(1H-imidazol-1-yl)-N-((1r,4r)-4-methoxycyclohexyl)-6-(tetrahydro-2H-pyran-4-yl)pyrimidine-4-carboxamide] | 11100 | 131 | 39.8
5 | O=C(Nc1ccc(C(F)F)nc1)c1cc(C2CCOCC2)nc(-n2ccnc2)n1 [Compound 195, N-(6-(difluoromethyl)pyridin-3-yl)-2-(1H-imidazol-1-yl)-6-(tetrahydro-2H-pyran-4-yl)pyrimidine-4-carboxamide] | 1580 | 14.6 | 9.9
6 | O=C(Nc1ccc(C(F)(F)F)nc1)c1cc(C2CCOCC2)nc(-n2ccnc2)n1 [Compound 196, 2-(1H-imidazol-1-yl)-6-(tetrahydro-2H-pyran-4-yl)-N-(6-(trifluoromethyl)pyridin-3-yl)pyrimidine-4-carboxamide] | 3190 | 25.4 | 19.3
7 | Cn1cncc1-c1nc(C(=O)Nc2ccc(C(F)(F)F)nc2)cc(C2CCOCC2)n1 [Compound 198, 2-(1-methyl-1H-imidazol-5-yl)-6-(tetrahydro-2H-pyran-4-yl)-N-(6-(trifluoromethyl)pyridin-3-yl)pyrimidine-4-carboxamide] | 1130 | 3.8 | 1
8 | Cn1cncc1-c1nc(C(=O)NC2CCC(F)(F)CC2)cc(C2CCOCC2)n1 [Compound 200, N-(4,4-difluorocyclohexyl)-2-(1-methyl-1H-imidazol-5-yl)-6-(tetrahydro-2H-pyran-4-yl)pyrimidine-4-carboxamide] | 2310 | 9.3 | 1.9
9 | COc1cc(-c2cncn2C)nc(C(=O)Nc2ccc(C(F)F)nc2)n1 [Compound 201, N-(6-(difluoromethyl)pyridin-3-yl)-4-methoxy-6-(1-methyl-1H-imidazol-5-yl)pyrimidine-2-carboxamide] | 317 | 2.6 | 1.3
10 | Cc1cc(-c2cncn2C)nc(C(=O)Nc2ccc(C(F)F)nc2)n1 [Compound 202, N-(6-(Difluoromethyl)pyridin-3-yl)-4-methyl-6-(1-methyl-1H-imidazol-5-yl)pyrimidine-2-carboxamide] | 229 | 2.8 | 1.1
11 | CO[C@H]1CC[C@H](NC(=O)c2nc(-c3cncn3C)cc(C3CC3)n2)CC1 [Compound 203, 4-cyclopropyl-N-((1r,4r)-4-methoxycyclohexyl)-6-(1-methyl-1H-imidazol-5-yl)pyrimidine-2-carboxamide] | 7870 | 161 | 12.1
12 | CO[C@H]1CC[C@H](NC(=O)c2nc(C3CC3)cc(-n3ccnc3)n2)CC1 [Compound 204, 4-cyclopropyl-6-(1H-imidazol-1-yl)-N-((1r,4r)-4-methoxycyclohexyl)pyrimidine-2-carboxamide] | 8570 | 123 | 8.8
13 | O=C(Nc1ccc(C(F)F)nc1)c1nc(C2CC2)cc(-n2ccnc2)n1 [Compound 205, 4-cyclopropyl-N-(6-(difluoromethyl)pyridin-3-yl)-6-(1H-imidazol-1-yl)pyrimidine-2-carboxamide] | 410 | 4 | 1.6
14 | Cn1cncc1-c1cc(C2CC2)nc(C(=O)Nc2ccc(C(F)F)nc2)n1 [Compound 206, 4-cyclopropyl-N-(6-(difluoromethyl)pyridin-3-yl)-6-(1-methyl-1H-imidazol-5-yl)pyrimidine-2-carboxamide] | 576 | 3.9 | 1.7
15 | COCCO[C@H]1CC[C@H](NC(=O)c2nccc(-c3cncn3C)n2)CC1 [Compound 209, N-((1r,4r)-4-(2-methoxyethoxy)cyclohexyl)-4-(1-methyl-1H-imidazol-5-yl)pyrimidine-2-carboxamide] | 8540 | 104 | 35
16 | COc1cc(-n2ccnc2)nc(C(=O)Nc2ccc(C(F)F)nc2)n1 [Compound 210, N-(6-(difluoromethyl)pyridin-3-yl)-4-(1H-imidazol-1-yl)-6-methoxypyrimidine-2-carboxamide] | 303 | 1.6 | 1.2

Continued by falling IC50 [1], values first:

Row | IC50 [1] [nM] | IC50 (human CD38) [nM] | IC50 (mouse CD38) [nM] | SMILES
17 | 8510 | 333 | 261 | Cn1cncc1-c1cc(C(C)(C)C)nc(C(=O)Nc2ccc(C(F)F)nc2)n1 [Compound 189, 4-(tert-butyl)-N-(6-(difluoromethyl)pyridin-3-yl)-6-(1-methyl-1H-imidazol-5-yl)pyrimidine-2-carboxamide]
18 | 7160 | 111 | 63.6 | O=C(NC1CCC(F)(F)CC1)c1cc(C2CCOCC2)nc(-n2ccnc2)n1 [Compound 194, N-(4,4-difluorocyclohexyl)-2-(1H-imidazol-1-yl)-6-(tetrahydro-2H-pyran-4-yl)pyrimidine-4-carboxamide]
19 | 3760 | 46.1 | 5.5 | COc1cc(-c2cncn2C)nc(C(=O)N[C@H]2CC[C@H](OC)CC2)n1 [Compound 192, 4-Methoxy-N-((1r,4r)-4-methoxycyclohexyl)-6-(1-methyl-1H-imidazol-5-yl)pyrimidine-2-carboxamide]
20 | 3690 | 24.8 | 7.2 | CO[C@H]1CC[C@H](NC(=O)c2nc(C)cc(-n3ccnc3)n2)CC1 [Compound 207, 4-(1H-imidazol-1-yl)-N-((1r,4r)-4-methoxycyclohexyl)-6-methylpyrimidine-2-carboxamide]
21 | 2950 | 21 | 5 | CC(C)c1cc(C(=O)N[C@H]2CC[C@H](C(F)F)CC2)nc(-c2cncn2C)n1 [Compound 172, N-((1r,4r)-4-(difluoromethyl)cyclohexyl)-6-isopropyl-2-(1-methyl-1H-imidazol-5-yl)pyrimidine-4-carboxamide]
22 | 2010 | 46.2 | 29.8 | O=C(N[C@H]1C[C@H](c2ccccc2)C1)c1nccc(-n2ccnc2)n1 [Compound 211, 4-(1H-imidazol-1-yl)-N-((1r,3r)-3-phenylcyclobutyl)pyrimidine-2-carboxamide]
23 | 1780 | 8 | 4 | CC(C)c1cc(C(=O)Nc2ccc(C(F)(F)F)nc2)nc(-c2cncn2C)n1 [Compound 174, 6-isopropyl-2-(1-methyl-1H-imidazol-5-yl)-N-(6-(trifluoromethyl)pyridin-3-yl)pyrimidine-4-carboxamide]
24 | 1470 | 15.2 | 9.1 | Cn1cncc1-c1ccnc(C(=O)N[C@H]2C[C@H](c3ccccc3)C2)n1 [Compound 213, 4-(1-methyl-1H-imidazol-5-yl)-N-((1r,3r)-3-phenylcyclobutyl)pyrimidine-2-carboxamide]
25 | 709 | 4.5 | 1 | Cn1cncc1-c1nc(C(=O)Nc2ccc(C(F)F)nc2)cc(C2CCOCC2)n1 [Compound 197, N-(6-(difluoromethyl)pyridin-3-yl)-2-(1-methyl-1H-imidazol-5-yl)-6-(tetrahydro-2H-pyran-4-yl)pyrimidine-4-carboxamide]
26 | 253 | 3.1 | 1.9 | COc1cc(C(=O)Nc2ccc(C(F)F)nc2)nc(-n2ccnc2)c1 [Compound 187, N-(6-(difluoromethyl)pyridin-3-yl)-6-(1H-imidazol-1-yl)-4-methoxypicolinamide]
